The source of these data is BindingDB's records for doi:10.1124/jpet.300.2.478 (Abbott Laboratories, 2002).

SMILES strings stand for the structures.

Assay [1] deals with T1, Alpha-1B adrenergic receptor (Homo sapiens, UniProt P35368).
T1 sequence (P35368 whole entry): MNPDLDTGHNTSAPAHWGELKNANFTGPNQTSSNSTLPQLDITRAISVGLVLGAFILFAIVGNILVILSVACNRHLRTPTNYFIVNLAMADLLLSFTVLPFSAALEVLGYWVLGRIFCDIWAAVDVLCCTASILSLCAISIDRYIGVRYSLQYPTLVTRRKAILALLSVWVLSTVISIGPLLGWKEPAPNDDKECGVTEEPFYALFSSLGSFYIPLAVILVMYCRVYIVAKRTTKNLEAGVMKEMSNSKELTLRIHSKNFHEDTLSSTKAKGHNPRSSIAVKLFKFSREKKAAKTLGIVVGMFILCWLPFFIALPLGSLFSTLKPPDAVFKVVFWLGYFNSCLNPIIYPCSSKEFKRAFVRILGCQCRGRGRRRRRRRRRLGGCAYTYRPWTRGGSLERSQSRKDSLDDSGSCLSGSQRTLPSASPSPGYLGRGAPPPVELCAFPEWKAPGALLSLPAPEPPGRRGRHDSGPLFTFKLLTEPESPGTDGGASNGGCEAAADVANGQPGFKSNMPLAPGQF

Assay [2] concerns the target T2, Alpha-1D adrenergic receptor (Homo sapiens, UniProt P25100).
T2 sequence (P25100 whole entry): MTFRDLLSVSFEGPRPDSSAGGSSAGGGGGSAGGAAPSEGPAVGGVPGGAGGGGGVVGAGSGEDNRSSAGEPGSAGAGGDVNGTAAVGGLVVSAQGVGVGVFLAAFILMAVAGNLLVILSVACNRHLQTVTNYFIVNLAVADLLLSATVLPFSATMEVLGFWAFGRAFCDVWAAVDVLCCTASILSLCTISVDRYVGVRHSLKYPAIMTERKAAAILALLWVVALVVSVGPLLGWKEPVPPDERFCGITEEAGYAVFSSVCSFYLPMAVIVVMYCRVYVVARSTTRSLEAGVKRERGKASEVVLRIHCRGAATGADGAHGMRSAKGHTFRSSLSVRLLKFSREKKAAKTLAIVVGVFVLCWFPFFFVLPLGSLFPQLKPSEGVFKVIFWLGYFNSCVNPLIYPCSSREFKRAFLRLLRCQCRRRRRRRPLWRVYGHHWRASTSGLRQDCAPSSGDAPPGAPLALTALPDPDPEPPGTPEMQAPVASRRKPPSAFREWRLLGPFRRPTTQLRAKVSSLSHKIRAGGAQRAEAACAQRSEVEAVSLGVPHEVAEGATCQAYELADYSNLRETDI

`CCOc1ccccc1OCCN[C@H](C)Cc1ccc(OC)c(S(N)(=O)=O)c1` [5-[(2R)-2-{[2-(2-ethoxyphenoxy)ethyl]amino}propyl]-2-methoxybenzenesulfonamide]: the Ki came to 0.6 nM in assay [1] and 0.056 nM in assay [2]. Turning to `COc1cc2nc(N3CCN(C(=O)C4CCCO4)CC3)nc(N)c2cc1OC` (stereo not given) [6,7-dimethoxy-2-[4-(tetrahydrofuran-2-ylcarbonyl)piperazin-1-yl]quinazolin-4-amine], the Ki in assay [2] came out at 0.66 nM. Regarding `COc1cccc2c1C1CN(CCCCn3c(=O)[nH]c4c(sc5ncc(-c6ccccc6)nc54)c3=O)CC1CO2` (stereo not given) [CAS_172307], the Ki in assay [1] was found to be 25.1 nM; in assay [2], 0.91 nM.
